# Laboratory results published in ChEMBL document CHEMBL3044678, “The synthesis and herbicidal activity of 1-alkyl-3-(alpha-hydroxy-substituted benzylidene)pyrrolidine-2,4-diones” (2005).
# The source made the active and inactive calls. The calls are words filed in the database; no cut-off is given here.
# Legend:
# [1] = test system: Echinochloa crus-galli; assay: Herbicidal activity against Echinochloa crus-galli (barnyard grass) assessed as growth inhibition at 10 ug/mL; type: functional; details: (L.) Beauv, read-out: GI
# [2] = test system: Brassica napus; assay: Herbicidal activity against Brassica napus (oilseed rape) assessed as growth inhibition at 100 ug/mL; type: functional; details: read-out: GI
# [3] = test system: Echinochloa crus-galli; assay: Herbicidal activity against Echinochloa crus-galli (barnyard grass) assessed as growth inhibition at 100 ug/mL; type: functional; details: (L.) Beauv, read-out: GI
# [4] = test system: Brassica napus; assay: Herbicidal activity against Brassica napus (oilseed rape) assessed as growth inhibition at 10 ug/mL; type: functional; details: read-out: GI
# [5] = test system: Echinochloa crus-galli; assay: Herbicidal activity against Echinochloa crus-galli (barnyard grass) assessed as plant bleaching effect at 100 ug/mL; type: functional, organism-based; details: (L.) Beauv
SMILES,inhibition of growth at 10 µg/mL [1] [%],inhibition of growth at 100 µg/mL [2] [%],inhibition of growth at 100 µg/mL [3] [%],inhibition of growth at 10 µg/mL [4] [%],Activity [5]
CC(C)N1CC(=O)/C(=C(/O)c2ccc([N+](=O)[O-])cc2)C1=O,0,34.2,1.6,4.5,inactive
Cc1ccccc1/C(O)=C1\C(=O)CN(C(C)C)C1=O,76.9,62.4,77.3,15.2,Active
CN1CC(=O)/C(=C(/O)c2cccc([N+](=O)[O-])c2)C1=O,5.2,22.4,42.8,0,inactive
COc1ccccc1/C(O)=C1\C(=O)CN(C(C)(C)C)C1=O,74.9,69.5,82.9,41.2,Active
COc1ccc(/C(O)=C2\C(=O)CN(C(C)C)C2=O)cc1,79.6,71,80,11.9,Active
CC(C)(C)N1CC(=O)/C(=C(/O)c2ccc([N+](=O)[O-])cc2)C1=O,0,48.1,9.8,1.8,inactive
CC(C)(C)N1CC(=O)/C(=C(/O)c2cccc([N+](=O)[O-])c2)C1=O,0,80.1,0.5,22.1,inactive
COc1ccccc1/C(O)=C1\C(=O)CN(C(C)C)C1=O,77.3,58.7,78.1,3,Active
Cc1ccccc1/C(O)=C1\C(=O)CN(C)C1=O,31.2,44.4,78.3,0,Active
CC(C)N1CC(=O)/C(=C(/O)c2ccccc2Cl)C1=O,51,66.8,77.9,38.9,Active
Cc1ccccc1/C(O)=C1\C(=O)CN(C(C)(C)C)C1=O,63.6,74.9,74.4,21.1,Active
CC(C)(C)N1CC(=O)/C(=C(/O)c2ccc(Cl)cc2)C1=O,0.4,98,20.8,13.8,inactive
COc1ccc(/C(O)=C2\C(=O)CN(C)C2=O)cc1,16.2,50.7,78.8,7.9,Active
Cc1ccc(/C(O)=C2\C(=O)CN(C(C)C)C2=O)cc1,76.8,86.4,78.4,8.1,Active
Cc1cccc(/C(O)=C2\C(=O)CN(C(C)C)C2=O)c1,49.2,82.1,75.5,3.3,Active
CN1CC(=O)/C(=C(/O)c2ccc([N+](=O)[O-])cc2)C1=O,9,40.9,51.9,5.1,inactive
CN1CC(=O)/C(=C(/O)c2ccc(Cl)cc2)C1=O,9.4,90.5,50.1,15.8,inactive
Cc1cccc(/C(O)=C2\C(=O)CN(C)C2=O)c1,25.3,64,68.3,14,Active
Cc1ccc(/C(O)=C2\C(=O)CN(C(C)(C)C)C2=O)cc1,36.3,88.1,48,13.5,inactive
CC(C)N1CC(=O)/C(=C(/O)c2cccc([N+](=O)[O-])c2)C1=O,0,70.3,42,10.2,inactive
Cc1cccc(/C(O)=C2\C(=O)CN(C(C)(C)C)C2=O)c1,4.9,85,48.5,24.9,inactive
COc1ccc(/C(O)=C2\C(=O)CN(C(C)(C)C)C2=O)cc1,78.7,77.7,80.3,5.4,Active
CC(C)N1CC(=O)/C(=C(/O)c2ccc(Cl)cc2)C1=O,25.1,77.2,68,16,Active
CS(=O)(=O)c1ccc(C(=O)C2C(=O)CCCC2=O)c(Cl)c1 [SULCOTRIONE],29.4,38.1,45.1,3.5,Active
